According to patent US10100043B2, “Substituted aldehyde compounds and methods for their use in increasing tissue oxygenation” (Global Blood Therapeutics, Inc., priority 2013, dated 2018):

Legend:
HbS/A = biological target: T1, HbS/A (Homo sapiens, UniProt P68871+P69905, E7V); assay: Relaxed-to-tense transition assay (R/T assay); assay type: biochemical; settings: compounds tested at 9 μM; 3 μM HbS/A, 30 μM DPG, 1 hr at 37° C., deoxygenation with N2
T1 construct: A mixture of HbS/A was purified from blood; from tissue; host or cells: blood of homozygous sickle cell patients (CHORI)
Procedure: A relaxed-to-tense transition assay (“R/T assay”) was used to determine the ability of substituted benzaldehyde compounds to maintain the high-oxygen affinity relaxed (R) state of hemoglobin under deoxygenated conditions. This ability can be expressed as a “delta R” value (i.e., the change in the time-period of the R state after hemoglobin is treated with a compound, as compared to the period without treatment with the compound). Delta R is the % R to remaining after the compounds treatment compared with no treatment (e.g. if R % without treatment is 8% while with treatment with a target compound is 48% R at 30 μM, then % R is 40% for that compound.
A mixture of HbS/A was purified from blood obtained from homozygous sickle cell patients though the Hemoglobinopathy Center at Children's Hospital Oakland Research Institute (CHORI) with Institutional Review Board approval. HbS/A (at a final concentration of 3 μM) was incubated for 1 hr at 37° C. in presence or absence of compounds in […] potassium phosphate buffer, pH=7.4 and 30 μM 2, 3 diphosphoglycerate (DPG) in 96 well plates in a final volume of 160 μl. Compounds were added at different concentrations (3 μM to 100 μM final concentrations). Plates were covered with a Mylar film. After incubation was completed the Mylar cover was removed and the plates were placed in a Spectrostar Nano plate reader previously heated at 37° C. Five minutes later, N2 (flow rate=20 L/min) was flowed through the spectrophotometer. Spectroscopic measurements (300 nm to 700 nm) were taken every 5 min for 2 hours. Data analysis was performed by using linear regression from the data retrieved for all wavelengths.
Table 4 below lists the delta R values where + indicates a delta R of between 0 and 30, ++ indicates a delta R of between 30 and 50, and +++ indicates a delta R of 50 or greater. Unless noted otherwise, the compounds in Table 2 were tested at 9 μM.

[1] = biological target: T2, purified Hemoglobin S (HbS) (Homo sapiens, UniProt P68871+P69905, E7V); assay: Modulation of hemoglobin oxygen affinity: oxygen equilibrium curves (OEC) in purified HbS, HEMOX analyzer; assay type: biochemical; settings: compounds tested at 30 μM; 25 μM purified HbS, 45 min at 37° C., pH 7.4
T2 construct: HbS was purified by a modified procedure; from tissue; host or cells: blood of homozygous sickle cell patients (CHORI)
Procedure: Oxygen equilibrium curves (OEC) in purified Hemoglobin S (HbS) were measured by the change in p50, the partial pressure of oxygen at which the heme binding sites in the HbS sample are 50% saturated with oxygen. HbS was purified by a modified procedure (Antonini and Brunori, 1971; Hemoglobin and Myoglobin in their Reactions with Ligands; North Holland Publishing Company; Amsterdam, London) from blood obtained from homozygous sickle cell patients though the Hemoglobinopathy Center at Children's Hospital Oakland Research Institute (CHORI) with Institutional Review Board approval. Oxygen equilibrium curves were carried out with a HEMOX analyzer, (TCS Scientific, New Hope, Pa.). Five hundred μL of 250 μM purified HbS were diluted into 4.5 mL of HEMOX buffer (30 mM TES, 130 mM NaCl, 5 mM KCl, pH=7.4) resulting in a final hemoglobin concentration of 25 μM. The compounds were added at the final desired concentrations. The mixture was incubated for 45 min at 37° C. and then transferred to the Hemox sample chamber. The samples were saturated with oxygen by flushing with compressed air for 10 minutes. The samples were then flushed with pure nitrogen and the absorbance of deoxy-Hb was recorded as a function of the solution pO2. The oxygen equilibrium data was then fit to the Hill Model to obtain values for p50. The deoxygenation curves for both HbS alone (control) and HbS in the presence of compound were collected with the TCS software. The p50 for purified Hbs was typically 13.8±1.6. Delta p50 values were obtained from the p50 value for control minus the p50 value for HbS treated with compound divided by the p50 value for the control.
The compounds of Table 1 that were where tested in the assay above were all found to have positive delta p50 values. Delta p50% is calculated from [[p50(HbS)-p50(HbS treated with compound)]/p50(HbS)]×100. Table 2 below lists the delta p50% values where + indicates a delta p50% of between 0 and 29 and ++ indicates a delta p50% of 30 or greater. Unless noted otherwise, the compounds in Table 2 were tested at 30 μM.

purified HBS = biological target: T3, purified HBS (Homo sapiens, UniProt P68871+P69905, E7V); assay: HbS polymerization assay (delay time, absorbance at 700 nm); assay type: biochemical; settings: percent delay (% DT) of polymerization vs HBS alone; 50 μM purified HBS, 1.8 M potassium phosphate pH 7.4
T3 construct: HbS is purified by the CRO VIRUSYS, from blood obtained from homozygous sickle cell patients; tissue VIRUSYS (CRO that did the purification); host or cells: blood of homozygous sickle cell patients (CHORI)
Procedure: Polymerization assays are carried out in vitro using purified HBS exchanged into 1.8 M potassium phosphate buffer at pH 7.4. Using a slightly modified protocol (Antonini and Brunori, 1971), HbS is purified by the CRO VIRUSYS, from blood obtained from homozygous sickle cell patients through the Hemoglobinopathy Center at Children's Hospital Oakland Research Institute (CHORI) with Institutional Review Board approval. Compounds are prepared in 100% DMSO and a desired amount is added to 50 μM of purified HBS at a final DMSO concentration of 0.3%. Final potassium phosphate concentration is adjusted to 1.8 M using a combination of 2.5 M potassium phosphate stock solution and water at pH 7.4. The reaction mixture is incubated for an hour at 37° C. and then transferred into a 24-well plate for deoxygenation in a glove box containing 99.5% nitrogen and 0.5% oxygen. The 24-well plate is not covered and incubated at 4° C. on a plate cooler inside the glove box for one and a half hours. Fifty μL of the reaction mixture is transferred into a 96-well plate and the absorbance at 700 nm is measured every minute for one hour at 37° C. in a plate reader located inside the glove box. A plot of the absorbance against time is fitted using a Boltzman sigmoidal fit and the delay time (from zero to time at half Vmax) is measured. To compare and rank compounds, delay times are expressed as percent delay (% DT), which is defined as the difference in delay times for HBS/compound and HBS alone multiplied by 100 and divided by the delay time for HBS alone.
Compounds listed below have been tested in the polymerization assay. Activity ranges are defined by the number of dagger (†) symbols indicated. † denotes activity ≥40% but ≤80%; †† denotes activity >80% but ≤120%; ††† denotes activity >120% but ≤140%; †††† denotes activity >160%.

[2] = test system: whole blood from homozygous sickle cell patients; assay: Whole blood assay: oxygen equilibrium curves of whole blood, HEMOX analyzer; assay type: cell-based, human; settings: compounds tested at 1000 μM; hematocrit 20%, 1 hour at 37° C.
Procedure: Oxygen Equilibrium Curves (OEC) of whole blood before and after treatment with different concentrations of substituted benzaldehyde compounds were performed as follows using a HEMOX analyzer (TCS Scientific, New Hope, Pa.). Blood samples from homozygous sickle cell patients were obtained though the Hemoglobinopathy Center at Children's Hospital Oakland Research Institute (CHORI) with Institutional Review Board approval. The hematocrit was adjusted to 20% using autologous plasma and the blood samples were incubated for 1 hour at 37° C. in absence or presence of compounds. 100 μl of these samples were added to 5 mL of Hemox buffer (30 mM TES, 130 mM NaCl, 5 mM KCl, pH=7.4) at 37° C. and then transferred to the Hemox sample chamber. The samples were saturated with oxygen by flushing with compressed air for 10 minutes. The samples were then flushed with pure nitrogen and the respective absorbances of oxy- and deoxy-Hb are recorded as a function of the solution pO2. The oxygen equilibrium data were then fitted to the Hill Model to obtain values for p50. The deoxygenation curves for both whole blood alone (control) and whole blood in the presence of the compound were collected with the TCS software.
Table 5 below lists the delta p50% values where + indicates a delta p50% of between 0 and 29, ++ indicates a delta p50% of between 30 and 50, and +++ indicates a delta p50% of 50 or greater. The compounds in Table 2 were tested at 1000 μM.

[3] = test system: Transgenic mice producing human HbS; settings: extreme hypoxia (5% oxygen), cited from earlier work

% delta Delay (purified HBS)	SMILES	delta R (%) (HbS/A)	delta p50 [1]	delta p50% [2]	hypoxia-induced sickled red blood cells ([3]; compared to non-treated mice)	survival times [3]
	COC(=O)C1CCCC(COc2cccc(O)c2C=O)C1 (stereo not shown) [Compound 9, methyl 3-((2-formyl-3-hydroxyphenoxy)methyl)cyclohexanecarboxylate]	+++ (+++ indicates a delta R of 50 or greater)	+ (+ indicates a delta p50% of between 0 and 29)			
†† (†† denotes activity >80% but ≤120%)	O=Cc1c(O)cccc1OC[C@H]1CC[C@H](C(=O)O)CC1 [Compound 6, trans-4-((2-formyl-3-hydroxyphenoxy)methyl)cyclohexanecarboxylic acid]		++ (++ indicates a delta p50% of 30 or greater)	+ (+ indicates a delta p50% of between 0 and 29)		
†††† (†††† denotes activity >160%)	O=Cc1c(O)cccc1OC[C@H]1CC[C@@H](C(=O)O)CC1 [Compound 2, cis-4-((2-formyl-3-hydroxyphenoxy)methyl)cyclohexanecarboxylic acid]	++ (++ indicates a delta R of between 30 and 50)	++ (++ indicates a delta p50% of 30 or greater)	++ (++ indicates a delta p50% of between 30 and 50)		
	O=Cc1ccc(CO)o1 [Compound 5HMF, 5-hydroxymethyl-2-furfuraldehyde]				reduced amounts of hypoxia-induced sickled red blood cells	significantly improved survival times
†††† (†††† denotes activity >160%)	O=Cc1c(O)cccc1OC[C@H]1CCC[C@@H](C(=O)O)C1 (relative stereo) [Compound 5, cis-3-((2-formyl-3-hydroxyphenoxy)methyl)cyclohexanecarboxylic acid]	+++ (+++ indicates a delta R of 50 or greater)	++ (++ indicates a delta p50% of 30 or greater)	++ (++ indicates a delta p50% of between 30 and 50)		
†† (†† denotes activity >80% but ≤120%)	O=Cc1c(O)cccc1OCC1=C(c2ccccc2)CCCC1 [Compound 10, 2-hydroxy-6-((3,4,5,6-tetrahydro-[1,1′-biphenyl]-2-yl)methoxy)benzaldehyde]	++ (++ indicates a delta R of between 30 and 50)		++ (++ indicates a delta p50% of between 30 and 50)		
† († denotes activity ≥40% but ≤80%)	O=Cc1c(O)cccc1OCC1CCCCC1c1ccccc1 (stereo not shown) [Compound 11, 2-hydroxy-6-((2-phenylcyclohexyl)methoxy)benzaldehyde]	++ (++ indicates a delta R of between 30 and 50)				
† († denotes activity ≥40% but ≤80%)	COc1cccc(OC[C@H]2CC[C@H](C(=O)OC)CC2)c1C=O [Compound 8, trans-methyl 4-((2-formyl-3-methoxyphenoxy)methyl)cyclohexanecarboxylate]	+ (+ indicates a delta R of between 0 and 30)	+ (+ indicates a delta p50% of between 0 and 29)			
†† (†† denotes activity >80% but ≤120%)	COC(=O)C1CCCC(COc2cccc(O)c2C=O)C1 (stereo not shown) [Compound 7, methyl 3-((2-formyl-3-hydroxyphenoxy)methyl)cyclohexanecarboxylate]		++ (++ indicates a delta p50% of 30 or greater)	+ (+ indicates a delta p50% of between 0 and 29)		
†† (†† denotes activity >80% but ≤120%)	COC(=O)[C@H]1CC[C@@H](COc2cccc(O)c2C=O)CC1 [Compound 1, cis-methyl 4-((2-formyl-3-hydroxyphenoxy)methyl)cyclohexanecarboxylate]	+++ (+++ indicates a delta R of 50 or greater)	++ (++ indicates a delta p50% of 30 or greater)	+ (+ indicates a delta p50% of between 0 and 29)		

SMILES	% delta Delay (purified HBS)	delta R (%) (HbS/A)	delta p50 [1]	delta p50% [2]	hypoxia-induced sickled red blood cells ([3]; compared to non-treated mice)	survival times [3]
COC(=O)[C@H]1CC[C@H](COc2cccc(O)c2C=O)CC1 [Compound 4, trans-methyl 4-((2-formyl-3-hydroxyphenoxy)methyl)cyclohexanecarboxylate]	††† (††† denotes activity >120% but ≤140%)	+++ (+++ indicates a delta R of 50 or greater)	++ (++ indicates a delta p50% of 30 or greater)	+ (+ indicates a delta p50% of between 0 and 29)		
